The values below come from US9169260B2 (MERCK SHARP & DOHME CORP., priority 2011, dated 2015).

Where only a bound is given, the exact number is not on record here.

Sequence of GST tagged IRAK-4 (Q9NWZ3 whole entry): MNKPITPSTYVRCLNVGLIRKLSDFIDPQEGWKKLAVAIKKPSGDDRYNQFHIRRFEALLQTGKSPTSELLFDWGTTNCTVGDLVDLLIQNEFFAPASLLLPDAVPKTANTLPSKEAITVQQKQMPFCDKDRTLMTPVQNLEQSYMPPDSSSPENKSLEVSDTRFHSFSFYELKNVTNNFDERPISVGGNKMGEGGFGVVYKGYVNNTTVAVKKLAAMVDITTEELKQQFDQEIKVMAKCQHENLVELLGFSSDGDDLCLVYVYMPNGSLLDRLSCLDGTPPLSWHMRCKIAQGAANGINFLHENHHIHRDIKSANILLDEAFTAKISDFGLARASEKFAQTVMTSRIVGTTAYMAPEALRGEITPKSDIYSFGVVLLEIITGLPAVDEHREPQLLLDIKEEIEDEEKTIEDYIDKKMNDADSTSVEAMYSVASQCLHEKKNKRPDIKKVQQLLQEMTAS

For one assay, the target named is GST tagged IRAK-4 (Homo sapiens (Human), UniProt Q9NWZ3). Put plainly: IRAK-4 Kinase Assay (IMAP fluorescence polarization). Format: biochemical. As to conditions: 100 μM ATP, 30 minutes at 25° C. The method, boiled down:
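Activity was read by IMAP fluorescence polarization, where phosphopeptide binding to M(III) nanoparticles raises FP. The 30-minute, 25° C reaction used 100 μM ATP, 100 nM RP7030 substrate and 0.5 nM GST-IRAK-4 in pH 7.2 Tris buffer with MgCl2, DTT and Tween 20.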
(In fluorescence polarisation assays a small probe gives low polarisation when free and higher when bound to something large.)
As to `Cc1ccc(-n2nc(C3CCN(S(=O)(=O)Cc4ccccn4)CC3)cc2NC(=O)c2cnn3cccnc23)cc1` [Example 397, N-[1-(4-methylphenyl)-3-{1-[(pyridin-2-ylmethyl)sulfonyl]piperidin-4-yl}-1H-pyrazol-5-yl]pyrazolo[1,5-a]pyrimidine-3-carboxamide], the IC50 – broadly, the point on the concentration scale where inhibition reaches its midpoint – was under 0.1 µM.
The same measure, in the same setting: with `CN1CCC(c2cc(NC(=O)c3cnn4cccnc34)n(-c3ccc(C4CC4)cc3F)n2)CC1` [Example 398, N-(1-(4-cyclopropyl-2-fluorophenyl)-3-(1-methylpiperidin-4-yl)-1H-pyrazol-5-yl)pyrazolo[1,5-a]pyrimidine-3-carboxamide] the figure was under 0.1 µM.
With “N3-(3-(1-(methylsulfonyl)piperidin-4-yl)-1-(p-tolyl)-1H-pyrazol-5-yl)pyrazolo[1,5-a]pyrimidine-3,6-dicarboxamide [Example 192]”, the IC50 was under 0.1 µM.

The same assay, now with this note: 100 μM ATP, 30 minutes at 25° C.; μM.
In the case of `Cc1ccc(-n2nc(C3CCN(S(=O)(=O)c4cccc(C(F)(F)F)c4)CC3)cc2NC(=O)c2cnn3cccnc23)cc1` [Example 371, N-[1-(4-methylphenyl)-3-(1-{[3-(trifluoromethyl)phenyl]sulfonyl}piperidin-4-yl)-1H-pyrazol-5-yl]pyrazolo[1,5-a]pyrimidine-3-carboxamide], the IC50 was over 1 µM.
`COc1ccc(S(=O)(=O)N2CCC(c3cc(NC(=O)c4cnn5cccnc45)n(-c4ccc(C)cc4)n3)CC2)c(OC)c1` [Example 372, N-[3-{1-[(2,4-dimethoxyphenyl)sulfonyl]piperidin-4-yl}-1-(4-methylphenyl)-1H-pyrazol-5-yl]pyrazolo[1,5-a]pyrimidine-3-carboxamide]: the IC50 was under 1 µM.
As to `Cc1ccc(-n2nc(C3CCN(S(=O)(=O)C4CCCCC4)CC3)cc2NC(=O)c2cnn3cccnc23)cc1` [Example 373, N-{3-[1-(cyclohexylsulfonyl)piperidin-4-yl]-1-(4-methylphenyl)-1H-pyrazol-5-yl}pyrazolo[1,5-a]pyrimidine-3-carboxamide], the IC50 was under 1 µM.
On the same count and under the same terms, with `Cc1ccc(-n2nc(C3CCN(S(=O)(=O)c4cccc(C#N)c4)CC3)cc2NC(=O)c2cnn3cccnc23)cc1` [Example 374, N-[3-{1-[(3-cyanophenyl)sulfonyl]piperidin-4-yl}-1-(4-methylphenyl)-1H-pyrazol-5-yl]pyrazolo[1,5-a]pyrimidine-3-carboxamide] the figure was under 1 µM; with `Cc1ccc(-n2nc(C3CCN(S(=O)(=O)c4cnn(C)c4)CC3)cc2NC(=O)c2cnn3cccnc23)cc1` [Example 375, N-[1-(4-methylphenyl)-3-{1-[(1-methyl-1H-pyrazol-4-yl)sulfonyl]piperidin-4-yl}-1H-pyrazol-5-yl]pyrazolo[1,5-a]pyrimidine-3-carboxamide], under 1 µM; with `Cc1ccc(-n2nc(C3CCN(S(=O)(=O)c4cn(C)cn4)CC3)cc2NC(=O)c2cnn3cccnc23)cc1` [Example 376, N-[3-{1-[(1-methyl-1H-imidazol-4-yl)sulfonyl]piperidin-4-yl}-1-(4-methylphenyl)-1H-pyrazol-5-yl]pyrazolo[1,5-a]pyrimidine-3-carboxamide], under 1 µM.
The same measure, in the same setting: with `Cc1ccc(-n2nc(C3CCN(S(=O)(=O)c4ccc5ccccc5c4)CC3)cc2NC(=O)c2cnn3cccnc23)cc1` [Example 377, N-{1-(4-methylphenyl)-3-[1-(naphthalen-2-ylsulfonyl)piperidin-4-yl]-1H-pyrazol-5-yl}pyrazolo[1,5-a]pyrimidine-3-carboxamide] the figure was over 1 µM.
On to `Cc1ccc(-n2nc(C3CCN(S(=O)(=O)c4ccccc4F)CC3)cc2NC(=O)c2cnn3cccnc23)cc1` [Example 378, N-[3-{1-[(2-fluorophenyl)sulfonyl]piperidin-4-yl}-1-(4-methylphenyl)-1H-pyrazol-5-yl]pyrazolo[1,5-a]pyrimidine-3-carboxamide], for which the IC50 was under 1 µM.
Still for that read-out and setting: the value for `Cc1ccc(-n2nc(C3CCN(S(=O)(=O)c4cccc(F)c4)CC3)cc2NC(=O)c2cnn3cccnc23)cc1` [Example 379, N-[3-{1-[(3-fluorophenyl)sulfonyl]piperidin-4-yl}-1-(4-methylphenyl)-1H-pyrazol-5-yl]pyrazolo[1,5-a]pyrimidine-3-carboxamide] was under 1 µM; that for `Cc1ccc(-n2nc(C3CCN(S(=O)(=O)c4ccc(C#N)cc4)CC3)cc2NC(=O)c2cnn3cccnc23)cc1` [Example 380, N-[3-{1-[(4-cyanophenyl)sulfonyl]piperidin-4-yl}-1-(4-methylphenyl)-1H-pyrazol-5-yl]pyrazolo[1,5-a]pyrimidine-3-carboxamide] was under 1 µM; that for `Cc1ccc(-n2nc(C3CCN(S(=O)(=O)c4ccc(C(F)(F)F)cc4)CC3)cc2NC(=O)c2cnn3cccnc23)cc1` [Example 381, N-[1-(4-methylphenyl)-3-(1-{[4-(trifluoromethyl)phenyl]sulfonyl}piperidin-4-yl)-1H-pyrazol-5-yl]pyrazolo[1,5-a]pyrimidine-3-carboxamide] was over 1 µM.
On the same count and under the same terms, the value for `Cc1ccc(-n2nc(C3CCN(S(=O)(=O)c4ccc(Cl)nc4)CC3)cc2NC(=O)c2cnn3cccnc23)cc1` [Example 382] was under 1 µM; that for `Cc1ccc(-n2nc(C3CCN(S(=O)(=O)c4ccc(N5CCOCC5)nc4)CC3)cc2NC(=O)c2cnn3cccnc23)cc1` [Example 383, N-[1-(4-methylphenyl)-3-{1-[(6-morpholin-4-ylpyridin-3-yl)sulfonyl]piperidin-4-yl}-1H-pyrazol-5-yl]pyrazolo[1,5-a]pyrimidine-3-carboxamide] was under 1 µM.
Still for that read-out and setting: with `Cc1ccc(-n2nc(C3CCN(S(=O)(=O)c4ccc5ncsc5c4)CC3)cc2NC(=O)c2cnn3cccnc23)cc1` [Example 384, N-{3-[1-(1,3-benzothiazol-6-ylsulfonyl)piperidin-4-yl]-1-(4-methylphenyl)-1H-pyrazol-5-yl}pyrazolo[1,5-a]pyrimidine-3-carboxamide] the figure was under 1 µM; with `COc1cccc(S(=O)(=O)N2CCC(c3cc(NC(=O)c4cnn5cccnc45)n(-c4ccc(C)cc4)n3)CC2)c1` [Example 385, N-[3-{1-[(3-methoxyphenyl)sulfonyl]piperidin-4-yl}-1-(4-methylphenyl)-1H-pyrazol-5-yl]pyrazolo[1,5-a]pyrimidine-3-carboxamide], over 1 µM; with `Cc1ccc(-n2nc(C3CCN(S(=O)(=O)c4cn(C)c(C)n4)CC3)cc2NC(=O)c2cnn3cccnc23)cc1` [Example 386, N-[3-{1-[(1,2-dimethyl-1H-imidazol-4-yl)sulfonyl]piperidin-4-yl}-1-(4-methylphenyl)-1H-pyrazol-5-yl]pyrazolo[1,5-a]pyrimidine-3-carboxamide], under 1 µM.
For `Cc1ccc(-n2nc(C3CCN(S(=O)(=O)Cc4ccccc4)CC3)cc2NC(=O)c2cnn3cccnc23)cc1` [Example 387, N-{3-[1-(benzylsulfonyl)piperidin-4-yl]-1-(4-methylphenyl)-1H-pyrazol-5-yl}pyrazolo[1,5-a]pyrimidine-3-carboxamide], the IC50 is under 1 µM.
The same measure, in the same setting: the value for `Cc1ccc(-n2nc(C3CCN(S(=O)(=O)c4cccnc4Cl)CC3)cc2NC(=O)c2cnn3cccnc23)cc1` [Example 388, N-[3-{1-[(2-chloropyridin-3-yl)sulfonyl]piperidin-4-yl}-1-(4-methylphenyl)-1H-pyrazol-5-yl]pyrazolo[1,5-a]pyrimidine-3-carboxamide] was under 1 µM; that for `COc1ccc(S(=O)(=O)N2CCC(c3cc(NC(=O)c4cnn5cccnc45)n(-c4ccc(C)cc4)n3)CC2)cn1` [Example 389, N-[3-{1-[(6-methoxypyridin-3-yl)sulfonyl]piperidin-4-yl}-1-(4-methylphenyl)-1H-pyrazol-5-yl]pyrazolo[1,5-a]pyrimidine-3-carboxamide] was under 1 µM; that for `Cc1ccc(-n2nc(C3CCN(S(=O)(=O)c4c(Cl)cccc4Cl)CC3)cc2NC(=O)c2cnn3cccnc23)cc1` [Example 390, N-[3-{1-[(2,6-dichlorophenyl)sulfonyl]piperidin-4-yl}-1-(4-methylphenyl)-1H-pyrazol-5-yl]pyrazolo[1,5-a]pyrimidine-3-carboxamide] was over 1 µM.
Still for that read-out and setting: the value for `Cc1ccc(-n2nc(C3CCN(S(=O)(=O)c4ccc(Cl)cc4Cl)CC3)cc2NC(=O)c2cnn3cccnc23)cc1` [Example 391, N-[3-{1[(2,4-dichlorophenyl)sulfonyl]piperidin-4-yl}-1-(4-methylphenyl)-1H-pyrazol-5-yl]pyrazolo[1,5-a]pyrimidine-3-carboxamide] was over 1 µM.
Same read-out and setting: with `Cc1ccc(-n2nc(C3CCN(S(=O)(=O)c4ccc(Cl)s4)CC3)cc2NC(=O)c2cnn3cccnc23)cc1` [Example 393, N-[3-{1-[(5-chlorothiophen-2-yl)sulfonyl]piperidin-4-yl}-1-(4-methylphenyl)-1H-pyrazol-5-yl]pyrazolo[1,5-a]pyrimidine-3-carboxamide] the figure was over 1 µM; with `Cc1ccc(-n2nc(C3CCN(S(=O)(=O)c4cccc(C(F)(F)F)n4)CC3)cc2NC(=O)c2cnn3cccnc23)cc1` [Example 394, N-[1-(4-methylphenyl)-3-(1-{[6-(trifluoromethyl)pyridin-2-yl]sulfonyl}piperidin-4-yl)-1H-pyrazol-5-yl]pyrazolo[1,5-a]pyrimidine-3-carboxamide], under 1 µM.
Molecule `Cc1ccc(-n2nc(C3CCN(S(=O)(=O)CCc4ccccc4)CC3)cc2NC(=O)c2cnn3cccnc23)cc1` [Example 395, N-[1-(4-methylphenyl)-3-{1-[(2-phenylethyl)sulfonyl]piperidin-4-yl}-1H-pyrazol-5-yl]pyrazolo[1,5-a]pyrimidine-3-carboxamide] registered an IC50 of under 1 µM.
Same read-out and setting: with `Cc1ccc(-n2nc(C3CCN(S(=O)(=O)c4cccc5cccnc45)CC3)cc2NC(=O)c2cnn3cccnc23)cc1` [Example 396, N-{1-(4-methylphenyl)-3-[1-(quinolin-8-ylsulfonyl)piperidin-4-yl]-1H-pyrazol-5-yl}pyrazolo[1,5-a]pyrimidine-3-carboxamide] the figure was under 1 µM.
